Measurements taken from Sander's compilation of Henry's law constants (doi:10.1021/je900711h).

Experiment: Henry solubility constant Hcp at 298.15 K (mol/(m3 Pa))
Settings: reference: O’Farrell and Waghorne (2010)

In order of falling “Henry solubility constant Hcp” value:
1. O=C1CCCC1 [cyclopentanone]  2.8
2. CCO [ethanol]  2.2
3. COCCOC [1,2-dimethoxyethane]  2.1
4. C1COCOC1 [1,3-dioxane]  1.8
5. OCC(F)F [2,2-difluoroethanol]  0.92
6. CC(=O)CF [1-fluoro-2-propanone]  0.46
7. OCC(Cl)Cl [2,2-dichloroethanol]  0.37
8. CC(=O)C(Cl)Cl [1,1-dichloro-2-propanone]  0.33
9. CC(C)=O [propanone]  0.33
10. CCC(=O)CC [3-pentanone]  0.21
